Where a name gives a salt, the structure may show the parent alone.

Test system in one data set: not given
Test: not given
Conditions: not given
Broadly, the melting point is the temperature, or range, at which the solid turns liquid. With `COc1cc(-c2cc3nc(C)nc(N4CCCCC4)c3[nH]2)cc(OC)c1OC.Cl` [Example 143, 1,2,3-Trimethoxy-5-[2-methyl-4-piperidylpyrrolo[4,5-d]pyrimidin-6-yl]benzene Hydrochloride], the melting point was in the range of 275 to 277 °C.

Consider `Cc1nc(N2CCCCC2)c2[nH]c(-c3ccc4c(c3)OCO4)cc2n1.Cl` (hydrate or solvate) [Example 114, 5-[2-Methyl-4-piperidylpyrrolo[4,5-d]pyrimidin-6-yl]-2H-benzo[d]1,3-dioxolane Hydrochloride Monohydrate], for which the melting point is above 280 °C.

As to `Cc1nc(N2CCCCC2)c2[nH]c(-c3ccc(F)cc3)c(C)c2n1.Cl` (hydrate or solvate) [Example 134, 6-(4-Fluorophenyl)-2,7-dimethyl-4-piperidylpyrrolo[3,2-d]pyrimidine Hydrochloride Hydrate], the melting point is above 280 °C.

`Cc1nc(N2CCCCC2)c2[nH]c(CS(=O)(=O)c3ccc(Cl)cc3)cc2n1.Cl` (hydrate or solvate) gave a melting point of 199 to 201 °C.

`Cc1nc(N2CC=CC2)c2oc(-c3ccccc3)cc2n1` (as salt: hydrochloride) (hydrate or solvate) [Example 216c, 2-Methyl-6-phenyl-4-(3-pyrrolinyl)furano[3,2-d]pyrimidine Hydrochloride Hydrate] yielded a melting point of 279 to 280 °C.

`Cc1nc(N2CCCCC2)c2[nH]c(-c3ccc(F)c(F)c3)c(C)c2n1.Cl`: the melting point is above 280 °C.

Regarding `Cc1nc(N2CCCCC2)c2[nH]c(-c3ccccc3)c(C)c2n1.Cl` (hydrate or solvate) [Example 90, 2,7-Dimethyl-6-phenyl-4-piperidylpyrrolo[3,2-d]pyrimidine Hydrochloride Monohydrate], the melting point was above 280 °C.

Molecule `CCc1c(-c2ccccc2)[nH]c2c(N3CCCCC3)nc(C)nc12.Cl` (hydrate or solvate) had a melting point of 261 to 263 °C.

As for `Cc1nc(N2CCCCC2)c2[nH]c(-c3cccc(F)c3)cc2n1.Cl` (hydrate or solvate) [Example 103, 6-(3-Fluorophenyl)-2-methyl-4-piperidylpyrrolo[3,2-d]pyrimidine Hydrochloride Monohydrate], the melting point was above 285 °C.

The molecule `Cc1nc(N2CC=CC2)c2[nH]c(-c3cccc(C(F)(F)F)c3)cc2n1` (as salt: hydrochloride) (hydrate or solvate) [Example 197d, 2-Methyl-4-(3-pyrrolinyl)-6-[3-(trifluoromethyl)phenyl]pyrrolo[3,2-d]pyrimidine Hydrochloride Monohydrate] gave a melting point above 270 °C.

Take `Cc1nc(N2CCCCC2)c2[nH]c(-c3cccc(C(F)(F)F)c3)cc2n1.Cl` (hydrate or solvate) [Example 107, 2-Methyl-4-piperidyl-6-[3-(trifluoromethyl)phenyl]pyrrolo[3,2-d]pyrimidine Hydrochloride Monohydrate]: the melting point lay within 241 to 243 °C.

In the case of `COc1ccc(-c2cc3nc(C)nc(N4CCCCC4)c3[nH]2)cc1F.Cl` (hydrate or solvate) [Example 119, 2-Fluoro-1-methoxy-4-[2-methyl-4-piperidylpyrrolo[4,5-d]pyrimidin-6-yl]benzene Hydrochloride Hydrate], the melting point lay in the range of 262 to 264 °C.

The molecule `Cc1nc(N2CCCCC2)c2[nH]c(-c3cccnc3)cc2n1.Cl` (hydrate or solvate) gave a melting point above 280 °C.

Another data set relates to Long-Evans male rats. The data set can be described thus: IP administration of compounds in fasted Long-Evans male rats, 2 hr food intake. The format is in vivo. The following applies: Rattus norvegicus; male Long Evans rats fasted 18-20 hr; 30 mg/kg (ip) in 2% tween; food given after 30 min, weighed 2 hr later; vs vehicle; read-out: inhibition of feeding (2 hr food intake). The procedure: Protocol for IP Administration of Compounds in Fasted Long-Evans Male Rats
Male Long Evans rats (85-100 g)were obtained from Harlan (Indianapolis, Ind.) and were given at least a one week acclimation period to Ambients animal care facilities. Animals were individually housed and were provided ad libitum food and water. For testing, rats were fasted for 18-20 hr (overnight) prior to the start of the experiment. On the test day, test compounds or vehicle was administered via the intraperitoneal (i.p.) route of administration. Test compounds were suspended in a 2% tween solution; the 2% tween solution was used as the vehicle treatment (control group). Group sizes for each treatment were 6-8 animals. After 30 min, premeasured food was placed into the cages. Two hours later, the food was weighed again. The difference between 2 hr weight and the premeasured weight was taken as 2 hr food intake.
For the molecule `Cc1nc(N2CCCCC2)c2[nH]c(-c3ccccc3F)cc2n1` [Example 102, 6-(2-Fluorophenyl)-2-methyl-4-piperidylpyrrolo[3,2-d]pyrimidine Hydrochloride Monohydrate], the inhibition in vivo at 30 mg/kg is at least 10%.

For `COc1ccc(-c2cc3nc(C)nc(N4CCCCC4)c3[nH]2)cc1OC` [Example 126, 1,2-Dimethoxy-4-(2-methyl-4-piperidylpyrrolo[4,5-d]pyrimidin-6-yl)benzene Hydrochloride Hydrate], the inhibition in vivo at 30 mg/kg was at least 10%.

For `Cc1nc(N2CCCCC2)c2[nH]c(CCc3ccccc3)cc2n1` [Example 168, 2-Methyl-6-(2-phenylethyl)-4-piperidylpyrrolo[3,2-d]pyrimidine Hydrochloride Hydrate], the inhibition in vivo at 30 mg/kg was at least 10%.

With `Cc1nc(N2CCCCC2)c2[nH]c(C)cc2n1` [Example 104, 2,6-Dimethyl-4-piperidylpyrrolo[3,2-d]pyrimidine Hydrochloride Hydrate], the inhibition in vivo at 30 mg/kg was at least 10%.

As for `Cc1nc(N2CCCCC2)c2[nH]c(-c3ccccc3)c(C)c2n1` [Example 90, 2,7-Dimethyl-6-phenyl-4-piperidylpyrrolo[3,2-d]pyrimidine Hydrochloride Monohydrate], the inhibition in vivo at 30 mg/kg is at least 10%.

Turning to `CCc1nc(N2CCc3ccccc3C2)c2[nH]c(-c3ccccc3)cc2n1` [Example 202, 2-Ethyl-6-phenyl-4-(2-1,2,3,4-tetrahydroisoquinolyl)pyrrolo[3,2-d]pyrimidine Hydrochloride Monohydrate], the inhibition in vivo at 30 mg/kg was at least 10%.

Regarding `Cc1nc(N2CC=CC2)c2oc(-c3ccccc3)cc2n1` [Example 216c, 2-Methyl-6-phenyl-4-(3-pyrrolinyl)furano[3,2-d]pyrimidine Hydrochloride Hydrate], the inhibition in vivo at 30 mg/kg is at least 10%.

On to `Fc1ccc(-c2cc3nc(C4CC4)nc(N4CCCCC4)c3[nH]2)cc1` [Example 209c, 2-Cyclopropyl-6-(4-fluorophenyl)-4-piperidylpyrrolo[3,2-d]pyrimidine Hydrochloride Hydrate], for which the inhibition in vivo at 30 mg/kg was at least 10%.

`Cc1nc(N2CCCCC2)c2[nH]c(-c3ccc(O)cc3)c(C)c2n1` [Example 137, 4-[2,7-Dimethyl-4-piperidylpyrrolo[4,5-d]pyrimidin-6-yl]phenol Hydrochloride Hydrate]: the inhibition in vivo at 30 mg/kg is at least 10%.

As for `Cc1nc(N2CCOCC2)c2[nH]c(-c3ccc(F)c(F)c3)cc2n1` [Example 141, 4-[6-(3,4-Difluorophenyl)-2-methylpyrrolo[2,3-e]pyrimidin-4-yl]morpholine Hydrochloride], the inhibition in vivo at 30 mg/kg was at least 10%.

With `Cc1nc(N2CCCCC2)c2[nH]c(-c3ccc(S(C)(=O)=O)cc3)cc2n1` [Example 142, 1-[2-Methyl-4-piperidylpyrrolo[4,5-d]pyrimidin-6-yl]-4-(methylsulfonyl)benzene Hydrochloride Monohydrate], the inhibition in vivo at 30 mg/kg was at least 10%.

Turning to `CCCCc1cc2nc(C)nc(N3CCCCC3)c2[nH]1` [Example 148, 6-Butyl-2-methyl-4-piperidylpyrrolo[3,2-d]pyrimidine Hydrochloride], the inhibition in vivo at 30 mg/kg is at least 10%.

For the molecule `CC(=O)c1ccc(-c2cc3nc(C)nc(N4CCCCC4)c3[nH]2)cc1` [Example 150, 1-[4-(2-Methyl-4-piperidylpyrrolo[4,5-d]pyrimidin-6-yl)phenyl]ethan-1-one Hydrochloride Hydrate], the inhibition in vivo at 30 mg/kg was at least 10%.

In the case of `Cc1nc(N2CCCCC2)c2[nH]c(-c3ccc(F)cc3)c(C)c2n1` [Example 134, 6-(4-Fluorophenyl)-2,7-dimethyl-4-piperidylpyrrolo[3,2-d]pyrimidine Hydrochloride Hydrate], the inhibition in vivo at 30 mg/kg was at least 10%.

For `COc1cc(-c2cc3nc(C)nc(N4CCCCC4)c3[nH]2)cc(OC)c1OC.Cl` [Example 143, 1,2,3-Trimethoxy-5-[2-methyl-4-piperidylpyrrolo[4,5-d]pyrimidin-6-yl]benzene Hydrochloride], the inhibition in vivo at 30 mg/kg is at least 10%.

Regarding `CN(C)c1nc(N2CCCCC2)c2[nH]c(-c3ccccc3)cc2n1` [Example 203, Hydrochloride Hydrate], the inhibition in vivo at 30 mg/kg is at least 10%.

Consider `Cc1nc(N2CCCCC2)c2[nH]c(-c3ccc4ccccc4c3)cc2n1` [Example 160, 2-Methyl-6-(2-naphthyl)-4-piperidylpyrrolo[3,2-d]pyrimidine Hydrochloride Hydrate], for which the inhibition in vivo at 30 mg/kg is at least 10%.

Turning to `Cc1nc(N2CCCCC2)c2[nH]c(-c3cccc(Cl)c3)cc2n1` [Example 70e, 6-(3-Chlorophenyl)-2-methyl-4-piperidylpyrrolo[3,2-d]pyrimidine Hydrochloride Monohydrate], the inhibition in vivo at 30 mg/kg was at least 10%.

As for `Cc1nc(N2CC=CC2)c2[nH]c(-c3ccc(Cl)c(Cl)c3)cc2n1` [Example 200d, 6-(3,4-Dichlorophenyl)-2-methyl-4-(3-pyrrolinyl)pyrrolo[3,2-d]pyrimidine Hydrochloride Hydrate], the inhibition in vivo at 30 mg/kg is at least 10%.

With `Cc1nc(N2CCCCC2)c2[nH]c(-c3ccc4c(c3)Cc3ccccc3-4)cc2n1` [Example 127, 6-Fluoren-2-yl-2-methyl-4-piperidylpyrrolo[3,2-d]pyrimidine Hydrochloride Hydrate], the inhibition in vivo at 30 mg/kg was at least 10%.

A further data set deals with Male BALB-C mice. The data set can be described thus: IP administration of compounds in fasted male BALB-C mice, 2 hr food intake. The format is in vivo. The following applies: Mus musculus; male BALB-C mice fasted 18-20 hr; 30 mg/kg (ip) in 2% tween; food given after 30 min, weighed 2 hr later; vs vehicle; read-out: inhibition of feeding (2 hr food intake). From the text: Protocol For IP Administration Of Compounds In Male BALB-C Mice.
Male BALB-C mice (20-25 g)were obtained from Charles Rivers (Wilmington, Mass.) and were given at least a one week acclimation period to Amgen's animal care facilities. Animals were housed 10/cage and were provided ad libitum food and water. For testing, mice were fasted for 18-20 hr (overnight) prior to the start of the experiment. On the day of the experiment, mice were removed from group housing and placed into individual cages (without food). Test compounds or vehicle was then administered via the intraperitoneal (i.p.) route of administration. Test compounds were suspended in a 2% tween solution; the 2% tween solution was used as the vehicle treatment (control group). Group sizes for each treatment were 6-8 animals. After 30 min, premeasured food was placed into the cages. Two hours later, the food was weighed again. The difference between 2 hr weight and the premeasured weight was taken as 2 hr food intake.
As to `c1ccc(-c2cc3ncnc(N4CCCCC4)c3[nH]2)cc1` [Example 30, 6-Phenyl-4-piperidylpyrrolo[3,2-d]pyrimidine Hydrochloride], the inhibition in vivo at 30 mg/kg was at least 10%.

The record behind these values is patent publication US6583154B1, “Compounds and methods which modulate feeding behavior and related diseases” (Amgen Inc., priority 1998, dated 2003).
